# In PMC5775429, “LY2087101 and dFBr share transmembrane binding sites in the (α4)3(β2)2 Nicotinic Acetylcholine Receptor” (Scientific Reports, 2018):
# “And” between values parts separate entries of the source, which are not always exact repeats. Equal entries are not always repeated. Marks after values point to notes of the source that are not given here.
# How the values were obtained:
# (α4C254S)3(β2)2 nAChR = target: T1, (α4C254S)3(β2)2 nAChR (Homo sapiens, UniProt P17787+P43681, C254S); test: Two-electrode voltage-clamp of ACh-induced currents in Xenopus oocytes; type: cell-based
# T1 construct: expressed in transfected cells; host or cells: Xenopus laevis oocytes injected with cRNA
# T1 sequence (P43681 29-627 C254S limits assumed): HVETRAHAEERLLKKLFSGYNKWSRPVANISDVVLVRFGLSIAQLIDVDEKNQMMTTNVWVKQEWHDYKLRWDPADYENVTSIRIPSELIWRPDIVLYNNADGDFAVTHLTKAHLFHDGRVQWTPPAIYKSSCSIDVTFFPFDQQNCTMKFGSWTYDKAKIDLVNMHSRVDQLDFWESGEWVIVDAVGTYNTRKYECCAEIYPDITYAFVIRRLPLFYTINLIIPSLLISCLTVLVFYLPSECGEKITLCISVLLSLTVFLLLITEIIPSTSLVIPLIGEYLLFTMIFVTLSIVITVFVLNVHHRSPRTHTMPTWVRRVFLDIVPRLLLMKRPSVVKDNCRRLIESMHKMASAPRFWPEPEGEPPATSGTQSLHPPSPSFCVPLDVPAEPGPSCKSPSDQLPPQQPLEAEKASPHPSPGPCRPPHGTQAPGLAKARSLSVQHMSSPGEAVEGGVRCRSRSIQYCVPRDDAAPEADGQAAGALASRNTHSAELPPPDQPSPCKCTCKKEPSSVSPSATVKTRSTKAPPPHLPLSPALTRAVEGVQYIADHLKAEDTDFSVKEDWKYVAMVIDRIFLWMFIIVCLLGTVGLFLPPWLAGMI
# T1 sequence (P17787 26-502): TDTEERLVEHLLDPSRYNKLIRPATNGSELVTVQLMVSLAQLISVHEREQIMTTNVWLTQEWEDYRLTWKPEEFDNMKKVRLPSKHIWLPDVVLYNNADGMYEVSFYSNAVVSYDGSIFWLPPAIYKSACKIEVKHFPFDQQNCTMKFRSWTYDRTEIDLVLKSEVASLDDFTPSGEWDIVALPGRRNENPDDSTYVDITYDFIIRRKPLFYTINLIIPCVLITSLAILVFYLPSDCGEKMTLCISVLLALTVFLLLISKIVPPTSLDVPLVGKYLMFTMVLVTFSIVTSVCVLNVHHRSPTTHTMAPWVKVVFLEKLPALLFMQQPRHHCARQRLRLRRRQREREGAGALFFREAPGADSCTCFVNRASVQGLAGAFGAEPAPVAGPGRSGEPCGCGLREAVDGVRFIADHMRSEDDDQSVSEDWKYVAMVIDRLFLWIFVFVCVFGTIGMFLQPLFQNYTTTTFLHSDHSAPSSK
# Experimental: (§1) For amino acid substitutions within the α4 nAChR subunit, point mutations were introduced into pSP64ployA plasmid with cDNA encoding for human α4 nAChR subunit with mutagenic primer pairs using the Quick Change II Site-Directed Mutagenesis Kit (Agilent Technologies) then confirmed by DNA sequencing (GENEWIZ, LLC, South Plainfield, NJ). cRNA transcripts suitable for oocyte expression were prepared in vitro from linearized plasmids [α3 (BamH1), α4 (AseI), β2 (PvuII), β4 (XhoI)] using mMESSAGE mMACHINE high yield capped RNA transcription kits (Ambion) and purified on NucAway Spin column (Invitrogen). cRNA concentration was determined by spectroscopy (Concentration (ug/ul) = Abs260 * 40), aliquoted and stored at −80 °C until used.
# (§2) Ovarian lobules were surgically harvested from oocytes-positive female Xenopus laevis (NASCO, Fort Atkinson, WI) according to an animal use protocol approved by the Texas A&M Health Sciences Center Institutional Animals Care and Use Committee. The Texas A&M Health Sciences Center Research Facility is registered as an animal research facility with the United States Department of Agriculture and is fully accredited by the American Association for Accreditation of Laboratory Animal Care (AAALAC). For oocytes defolliculation, ovarian lobes were treated with 3 mg/ml collagenase type 2 (Worthington Biomedical, Lakewood, NJ) in Ca + 2-free buffer (85 mM NaCl, 2.5 mM KCl, 1 mM MgCl2, 5 mM HEPES, pH 7.6). Collagenase treatment was allowed to proceed for 3 hours at room temperature with gentle shaking then oocytes were washed several times with buffer to remove collagenase then with ND96-gentamicine buffer. Healthy Stage V and VI oocytes were visually selected and maintained at 18 °C in modified ND96-gentamicine buffer (96 mM NaCl, 2 mM KCl, 1.8 mM CaCl2, 1 mM MgCl2, 5 mM HEPES, 50 µg/ml gentamicin, pH 7.6). Oocytes were injected with 50–100 ng of the desired nAChR subunits cRNA mix at ratios of 8α:1β or 1α:8β to express nAChRs with subunit stoichiometries of 3α:2β (low agonist sensitivity) or 2α:3β (high agonist sensitivity), respectively.
# (§3) Oocytes were continuously perfused with recording buffer (100 mM NaCl, 2 mM KCl, 1 mM CaCl2, 0.8 mM MgCl2, 1 mM EGTA, 10 mM Hepes, pH 7.5) except during periods of drug applications.
# (α4C259F)3(β2)2 nAChR = (α4C259F)3(β2)2 nAChR (Homo sapiens, UniProt P43681, C259F); test: as above; type: cell-based; details: 10 µM ACh + 1 µM PAM vs 10 µM ACh alone
# Chain of (α4C259F)3(β2)2 nAChR (P43681 29-627 C259F limits assumed): as the sequence (P43681 29-627 C254S limits assumed) above, with S226C, C231F counted along it
# Chain of (α4C259F)3(β2)2 nAChR (P17787 26-502 partner): as the sequence (P17787 26-502) above
# Experimental: as §1, §2, §3
# (α4C259V)3(β2)2 nAChR = (α4C259V)3(β2)2 nAChR (Homo sapiens, UniProt P43681, C259V); test: as above; type: cell-based; details: 10 µM ACh + 1 µM PAM vs 10 µM ACh alone
# Chain of (α4C259V)3(β2)2 nAChR (P43681 29-627 C259V limits assumed): as the sequence (P43681 29-627 C254S limits assumed) above, with S226C, C231V counted along it
# Chain of (α4C259V)3(β2)2 nAChR (P17787 26-502 partner): as the sequence (P17787 26-502) above
# Experimental: as §1, §2, §3
# (α4G613L)3(β2)2 nAChR = (α4G613L)3(β2)2 nAChR (Homo sapiens, UniProt P43681, G613L); test: as above; type: cell-based
# Chain of (α4G613L)3(β2)2 nAChR (P43681 29-627 G613L limits assumed): as the sequence (P43681 29-627 C254S limits assumed) above, with S226C, G585L counted along it
# Chain of (α4G613L)3(β2)2 nAChR (P17787 26-502 partner): as the sequence (P17787 26-502) above
# Experimental: as §1, §2, §3
# (α4H332Y)3(β2)2 nAChR = target: T2, (α4H332Y)3(β2)2 nAChR (Homo sapiens, UniProt P17787+P43681, H332Y); test: as above; type: cell-based; details: 10 µM ACh + 1 µM PAM vs 10 µM ACh alone
# T2 construct: expressed in transfected cells; host or cells: Xenopus laevis oocytes injected with cRNA
# T2 sequence (P43681 29-627 H332Y limits assumed): as the sequence (P43681 29-627 C254S limits assumed) above, with S226C, H304Y counted along it
# T2 sequence (P17787 26-502): as the sequence (P17787 26-502) above
# Experimental: as §1, §2, §3
# (α4I607T)3(β2)2 nAChR = target: T3, (α4I607T)3(β2)2 nAChR (Homo sapiens, UniProt P17787+P43681, I607T); test: as above; type: cell-based; details: 10 µM ACh + 1 µM PAM vs 10 µM ACh alone
# T3 construct: expressed in transfected cells; host or cells: Xenopus laevis oocytes injected with cRNA
# T3 sequence (P43681 29-627 I607T limits assumed): as the sequence (P43681 29-627 C254S limits assumed) above, with S226C, I579T counted along it
# T3 sequence (P17787 26-502): as the sequence (P17787 26-502) above
# Experimental: as §1, §2, §3
# (α4L256F)3(β2)2 nAChR = (α4L256F)3(β2)2 nAChR (Homo sapiens, UniProt P43681, L256F); test: as above; type: cell-based
# Chain of (α4L256F)3(β2)2 nAChR (P43681 29-627 L256F limits assumed): as the sequence (P43681 29-627 C254S limits assumed) above, with S226C, L228F counted along it
# Chain of (α4L256F)3(β2)2 nAChR (P17787 26-502 partner): as the sequence (P17787 26-502) above
# Experimental: as §1, §2, §3
# (α4L291V)3(β2)2 nAChR = target: T4, (α4L291V)3(β2)2 nAChR (Homo sapiens, UniProt P17787+P43681, L291V); test: as above; type: cell-based
# T4 construct: expressed in transfected cells; host or cells: Xenopus laevis oocytes injected with cRNA
# T4 sequence (P43681 29-627 L291V limits assumed): as the sequence (P43681 29-627 C254S limits assumed) above, with S226C, L263V counted along it
# T4 sequence (P17787 26-502): as the sequence (P17787 26-502) above
# Experimental: as §1, §2, §3
# (α4L310F)3(β2)2 nAChR = target: T5, (α4L310F)3(β2)2 nAChR (Homo sapiens, UniProt P17787+P43681, L310F); test: as above; type: cell-based; details: 10 µM ACh + 1 µM PAM vs 10 µM ACh alone
# T5 construct: expressed in transfected cells; host or cells: Xenopus laevis oocytes injected with cRNA
# T5 sequence (P43681 29-627 L310F limits assumed): as the sequence (P43681 29-627 C254S limits assumed) above, with S226C, L282F counted along it
# T5 sequence (P17787 26-502): as the sequence (P17787 26-502) above
# Experimental: as §1, §2, §3
# (α4M605I)3(β2)2 nAChR = target: T6, (α4M605I)3(β2)2 nAChR (Homo sapiens, UniProt P17787+P43681, M605I); test: as above; type: cell-based; details: 10 µM ACh + 1 µM PAM vs 10 µM ACh alone
# T6 construct: expressed in transfected cells; host or cells: Xenopus laevis oocytes injected with cRNA
# T6 sequence (P43681 29-627 M605I limits assumed): as the sequence (P43681 29-627 C254S limits assumed) above, with S226C, M577I counted along it
# T6 sequence (P17787 26-502): as the sequence (P17787 26-502) above
# Experimental: as §1, §2, §3
# (α4S258M)3(β2)2 nAChR = (α4S258M)3(β2)2 nAChR (Homo sapiens, UniProt P43681, S258M); test: as above; type: cell-based; details: 10 µM ACh + 1 µM PAM vs 10 µM ACh alone
# Chain of (α4S258M)3(β2)2 nAChR (P43681 29-627 S258M limits assumed): as the sequence (P43681 29-627 C254S limits assumed) above, with S226C, S230M counted along it
# Chain of (α4S258M)3(β2)2 nAChR (P17787 26-502 partner): as the sequence (P17787 26-502) above
# Experimental: as §1, §2, §3
# (α4S284G)3(β2)2 nAChR = target: T7, (α4S284G)3(β2)2 nAChR (Homo sapiens, UniProt P17787+P43681, S284G); test: as above; type: cell-based; details: 10 µM ACh + 1 µM PAM vs 10 µM ACh alone
# T7 construct: expressed in transfected cells; host or cells: Xenopus laevis oocytes injected with cRNA
# T7 sequence (P43681 29-627 S284G limits assumed): as the sequence (P43681 29-627 C254S limits assumed) above, with S226C, S256G counted along it
# T7 sequence (P17787 26-502, stated change not applied): as the sequence (P17787 26-502) above
# Experimental: as §1, §2, §3
# (α4V609A)3(β2)2 nAChR = target: T8, (α4V609A)3(β2)2 nAChR (Homo sapiens, UniProt P17787+P43681, V609A); test: as above; type: cell-based; details: 10 µM ACh + 1 µM PAM vs 10 µM ACh alone
# T8 construct: expressed in transfected cells; host or cells: Xenopus laevis oocytes injected with cRNA
# T8 sequence (P43681 29-627 V609A limits assumed): as the sequence (P43681 29-627 C254S limits assumed) above, with S226C, V581A counted along it
# T8 sequence (P17787 26-502): as the sequence (P17787 26-502) above
# Experimental: as §1, §2, §3
# (α4)2(β2)3 nAChR = target: T9, (α4)2(β2)3 nAChR (Homo sapiens, UniProt P17787+P43681); details: cited from earlier work
# T9 construct: expressed in transfected cells; host or cells: Xenopus laevis oocytes injected with cRNA
# T9 sequence (P43681 29-627 limits assumed): as the sequence (P43681 29-627 C254S limits assumed) above, with S226C counted along it
# T9 sequence (P17787 26-502): as the sequence (P17787 26-502) above
# (α4H142L)3(β2)2 nAChR = (α4H142L)3(β2)2 nAChR (Homo sapiens, UniProt P43681, H142L); parameters: method as in PMID 28446611; details: 10 µM ACh + 1 µM dFBr vs 10 µM ACh alone; data reported previously ref 29; cited from earlier work
# Chain of (α4H142L)3(β2)2 nAChR (P43681 29-627 H142L limits assumed): as the sequence (P43681 29-627 C254S limits assumed) above, with H114L, S226C counted along it
# Chain of (α4H142L)3(β2)2 nAChR (P17787 26-502 partner): as the sequence (P17787 26-502) above
# (α4Q150T)3(β2)2 nAChR = (α4Q150T)3(β2)2 nAChR (Homo sapiens, UniProt P43681, Q150T); parameters: method as in PMID 28446611; details: 10 µM ACh + 1 µM dFBr vs 10 µM ACh alone; data reported previously ref 29; cited from earlier work
# Chain of (α4Q150T)3(β2)2 nAChR (P43681 29-627 Q150T limits assumed): as the sequence (P43681 29-627 C254S limits assumed) above, with Q122T, S226C counted along it
# Chain of (α4Q150T)3(β2)2 nAChR (P17787 26-502 partner): as the sequence (P17787 26-502) above
# animal model = system: animal model; parameters: method as in PMID 23712602, PMID 28446611, PMID 28809075, PMID 28105008; details: cited from earlier work
# [1] = 10 µM ACh + 1 µM PAM vs 10 µM ACh alone
# [2] = ACh concentration-response curve, normalized to 1 mM ACh alone
# [3] = read-out: dFBr potentiation EC50
# [4] = read-out: inhibition of ACh-current response at 10 μM dFBr
smiles,measurement,setting,value
C=CC(C)(C)c1[nH]c2cc(Br)ccc2c1CCNC [dFBr],"R, potentiation ratio (PR)",(α4C254S)3(β2)2 nAChR; [1],3.6 ± 0.4
same,ACh Imax in the presence of 1 µM dFBr,(α4C254S)3(β2)2 nAChR; [2],190 ± 08%
same,dFBr potentiation h (Hill coefficient),(α4C254S)3(β2)2 nAChR; co-applied with 10 μM ACh,0.8 ± 0.1
same,dFBr potentiation Imax,(α4C254S)3(β2)2 nAChR; normalized to 10 µM ACh alone,430 ± 31%
same,EC50,(α4C254S)3(β2)2 nAChR; [3],1500 ± 500 nM
same,"R, potentiation ratio (PR)",(α4C259F)3(β2)2 nAChR,3.1 ± 0.3
same,"R, potentiation ratio (PR)",(α4C259V)3(β2)2 nAChR,4.6 ± 0.9
same,"R, potentiation ratio (PR)",(α4G613L)3(β2)2 nAChR; [1],0.8 and 0.8 ± 0.1
same,ACh Imax in the presence of 1 µM dFBr,(α4G613L)3(β2)2 nAChR; [2],157 ± 19%
same,dFBr concentration-dependent potentiation of ACh-current responses,"(α4G613L)3(β2)2 nAChR; dFBr up to 10 µM, 10 μM ACh",did not potentiate
same,inhibition at 10 µM,(α4G613L)3(β2)2 nAChR; [4],~65%
same,"R, potentiation ratio (PR)",(α4H332Y)3(β2)2 nAChR,5.5 ± 0.4
same,"R, potentiation ratio (PR)",(α4I607T)3(β2)2 nAChR,4.7 ± 2.1
same,"R, potentiation ratio (PR)",(α4L256F)3(β2)2 nAChR; [1],1.0 and ~ 1 and 1.0 ± 0.1
same,ACh Imax in the presence of 1 µM dFBr,(α4L256F)3(β2)2 nAChR; [2],142 ± 08%
same,dFBr concentration-dependent potentiation of ACh-current responses,"(α4L256F)3(β2)2 nAChR; dFBr up to 10 µM, 10 μM ACh",did not potentiate
same,inhibition at 10 µM,(α4L256F)3(β2)2 nAChR; [4],~25%
same,"R, potentiation ratio (PR)",(α4L291V)3(β2)2 nAChR; [1],3.5 ± 0.2
same,dFBr potentiation h (Hill coefficient),(α4L291V)3(β2)2 nAChR; co-applied with 10 μM ACh,0.8 ± 0.2
same,dFBr potentiation Imax,(α4L291V)3(β2)2 nAChR; normalized to 10 µM ACh alone,600 ± 136%
same,EC50,(α4L291V)3(β2)2 nAChR; [3],2900 ± 1900 nM
same,"R, potentiation ratio (PR)",(α4L310F)3(β2)2 nAChR,5.6 ± 0.3
same,"R, potentiation ratio (PR)",(α4M605I)3(β2)2 nAChR,4.5 ± 0.3
same,"R, potentiation ratio (PR)",(α4S258M)3(β2)2 nAChR,5.0 ± 0.5
same,"R, potentiation ratio (PR)",(α4S284G)3(β2)2 nAChR,2.8 ± 0.4
same,"R, potentiation ratio (PR)",(α4V609A)3(β2)2 nAChR,3.2 ± 0.2
same,increase in ACh efficacy (Imax) by dFBr,(α4)2(β2)3 nAChR; ACh concentration-response curve,~ 4 fold
same,dFBr maximal potentiation,(α4)2(β2)3 nAChR,300%
same,EC50,(α4)2(β2)3 nAChR; [3],~1000 nM
same,"R, potentiation ratio (PR)",(α4H142L)3(β2)2 nAChR,8.1 ± 0.6^a
same,"R, potentiation ratio (PR)",(α4Q150T)3(β2)2 nAChR,3.9 ± 0.1^a
same,antiallodynic response of nicotine,animal model,potentiate the antiallodynic response of nicotine
